Measured values reported in article PMC4109680, “Identification and Preclinical Pharmacology of the γ-Secretase Modulator BMS-869780” (International Journal of Alzheimer's Disease, 2014).

Key:
[1] = Plasma protein bound fraction, rat; format: in vitro ADME
[2] = test system: rat brain APP-CTFβ and APP-CTFα; test: Immunoprecipitation and western blot of APP-CTFβ and APP-CTFα from rat brain; format: in vivo; conditions: oral doses 1.9-235 mg/kg, 24 hours
Experimental: Rats were given oral doses of BMS-869780, and levels of brain Aβ, βCTF, and αCTF were determined 24 hours later. For comparison, BMS-698861 was dosed in a separate experiment and samples were taken 5 hours later. (a) Brain levels of Aβ1-42 (red), Aβ1-40 (green), Aβ1-38 (blue), and Aβ1-37 (purple) are shown as bars stacked upon one another. The total height of each bar therefore represents the sum of the four peptides. (b) Aβ1-42 (red—left Y axis) and Aβ1-x (grey—right Y axis). The same results for Aβ1-42 are plotted in both (a) and (b). (c) Rat brain βCTF was detected by western blotting of immunoprecipitates from samples of the same rat brains used for Aβ determinations. V, vehicle groups; results from rats dosed with 1.9, 22, 100, and 235 mg/kg of BMS-869780 and 10 mg/kg BMS-698861 (GSI) are indicated. (d) Western blots of immunoprecipitated αCTF from the same rat brain samples. (e) and (f) quantification of western blots shown in (c) and (d), respectively, expressed relative to percent of average level of CTF in vehicle-treated rats. Actual doses of BMS-869780 were determined by analysis of concentrations in left-over dosing solutions. […]

[3] = test system: rat brain Aβ; test: Rat brain Aβ peptides after oral dose (4-plex immunoassay and Aβ1-x); format: in vivo; conditions: 24 hours
Experimental: IC50 determinations for Aβ1-42 and Aβ1-40 in H4-APPsw cultures in 384-well format were determined using homogeneous time-resolved fluorescence immunoassays as previously described. The principle of these assays is illustrated in Figures 1(c) and 1(d). In other experiments using H4-APPsw cultures, Aβ was quantified by ELISA; for Aβ1-42 the combination of monoclonal antibodies was 26D6 and 565-HRP; for Aβ1-40 it was TSD and 26D6-HRP, and for Aβ1-x it was 4G8 and 26D6-HRP. In some experiments a novel 4-plex Aβ electrochemiluminescence immunoassay was used (Mesoscale Discovery catalog number N45ZA-1). Briefly, the 4-plex was carried out in 96-well format, with 4 separate spots of capture antibodies in each well. The 96-well plates were prepared by the manufacturer, with spots of monoclonal antibodies for Aβ1-42, Aβ1-40, and Aβ1-38, and an additional fourth spot of streptavidin in each well. Plates were initially incubated with blocking buffer (5% BSA in phosphate buffered saline, 200 μL per well) for 2 hours at ambient temperature and then with D2A6H-biotin conjugate (50 ng/mL in 1% BSA, phosphate buffered saline, 25 μL per well) for 1 hour. Plates were then rinsed with phosphate buffered saline before addition of experimental samples for determination of Aβ1-42, Aβ1-40, Aβ1-38, and Aβ1-37 levels, following the manufacturer's instructions as for the Aβ 3-plex kit (catalog number K15148E-1). Rat brain extracts for use in the 4-plex assay were made in 0.2% diethylamine, as previously described. For detection of rat Aβ peptides in the 4-plex (Figure 5), 252Q6-sulfo-tag conjugate was used, and for detection of human Aβ peptides from cell cultures 6E10-sulfo-tag conjugate was used. For Aβ in transiently transfected PS1/PS2 dKO fibroblasts, Aβ1-42 was quantified using an ELISA kit (WACO), and Aβ1-40 was quantified by ELISA as described above for H4-APPsw cultures. For triple transgenic mice (3xTg; [63]), human transgenic Aβ1-42 was assayed in brain homogenates using an ELISA kit (WACO). For the rat and mouse experiments illustrated in Figures 7 and 8, brain samples were prepared by solid phase extraction, and endogenous rat brain Aβ1-42 and Aβ1-40 were quantified by ELISA as previously described for wild type mice. For brain extracts made using solid phase extraction, calibration of Aβ was relative, based on the approximately linear response of the assay in the range tested. For brain extracts made in 0.2% diethylamine, Aβ1-42, Aβ1-40, Aβ1-38, and Aβ1-37 concentrations in brain and cell culture samples were determined by fitting the results of immunoassays against calibration curves derived from a range of dilutions of the corresponding synthetic peptides on each assay plate using a quadratic curve fit (Graphpad Prizm 5.0). Aβ1-x was calibrated in the same way against synthetic Aβ1-40 peptide. Results were expressed in units of pM, corrected for sample dilution.
Rats were given oral doses of BMS-869780, and levels of brain Aβ, βCTF, and αCTF were determined 24 hours later. For comparison, BMS-698861 was dosed in a separate experiment and samples were taken 5 hours later. […] (c) Rat brain βCTF was detected by western blotting of immunoprecipitates from samples of the same rat brains used for Aβ determinations. […] (e) and (f) quantification of western blots shown in (c) and (d), respectively, expressed relative to percent of average level of CTF in vehicle-treated rats. […]

COc1cc(Nc2nc3n(n2)CCCC[C@H]3c2ccc(F)cc2)ccc1-n1cnc(Cl)c1 [BMS-869780]
protein bound fraction [1]: 99.5%
rat brain APP-CTFβ and APP-CTFα levels [2]: Neither APP-CTFβ nor APP-CTFα levels were affected
rat brain Aβ1-37 and Aβ1-38 ([3]; oral doses 1.9-235 mg/kg): increased
rat brain Aβ1-40 and Aβ1-42 ([3]; oral doses 1.9-235 mg/kg): decreased
rat brain Aβ1-x ([3]; oral doses): no significant decrease
sum total of brain Aβ1-40, Aβ1-42, Aβ1-38 and Aβ1-37 ([3]; oral doses): no significant change in overall Aβ levels
